Test results reported in US20220332701A1, “HETEROCYCLIC COMPOUNDS AS BCR-ABL INHIBITORS” (ASCENTAGE PHARMA (SUZHOU) CO., LTD., priority 2019, published 2022).

Key:
[1] = biological target: BaF3(WT) (Homo sapiens, UniProt P00519); assay: WST (CCK-8) anti-proliferation assay, BaF3 WT cells; conditions: read-out: BaF3(WT); anti-proliferative IC50, 72 h treatment, CCK-8, BaF3 WT
[2] = biological target: BaF3(T315I) (Homo sapiens, UniProt P00519, T315I, cells depend on it); assay: WST (CCK-8) anti-proliferation assay, BaF3 T315I cells; conditions: read-out: BaF3(T315I); anti-proliferative IC50, 72 h treatment, CCK-8, BaF3 T315I

GI50 [1] [nM] | GI50 [2] [nM] | Compound
29 | 272 | O=C(Nc1ccc(OC(F)(F)Cl)cc1)c1cc2c(c(-c3ccn[nH]3)c1)N(C1CCCC1)CC2 [VII-2, N-(4-(chlorodifluoromethoxy)phenyl)-1-cyclopentyl-7-(1H-pyrazol-5-yl) indoline-5-carboxamide]
34 | 295 | O=C(Nc1ccc(OC(F)(F)Cl)cc1)c1cc2c(c(-c3ccn[nH]3)c1)N(C1CC1)CC2 [VII-5, N-(4-(chlorodifluoromethoxy)phenyl)-1-cyclopropyl-7-(1H-pyrazol-5-yl) indoline-5-carboxamide]
23 | 468 | O=C(Nc1ccc(OC(F)(F)Cl)cc1)c1cc2c(c(-c3ccn[nH]3)c1)N(C1CCC1)CC2 [VII-8, N-(4-(chlorodifluoromethoxy)phenyl)-1-cyclobutyl-7-(1H-pyrazol-5-yl) indoline-5-carboxamide]
132 | 575 | CNCC1CN(C(C)C)c2c(-c3ccn[nH]3)cc(C(=O)Nc3ccc(OC(F)(F)Cl)cc3)cc21 (stereo not drawn) [VII-28, N-(4-(chlorodifluoromethoxy)phenyl)-1-isopropyl-3-((methylamino)methyl)-7-(1H-pyrazol-5-yl)indoline-5-carboxamide]
20 | 223 | CC1CN(C(C)C)c2c(-c3ccn[nH]3)cc(C(=O)Nc3ccc(OC(F)(F)Cl)cc3)cc21 (stereo not drawn) [VII-38, N-(4-(chlorodifluoromethoxy)phenyl)-1-isopropyl-3-methyl-7-(1H-pyrazol-5-yl)indoline-5-carboxamide]
123 | 574 | O=C(Nc1ccc(OC(F)(F)Cl)cc1)c1cc2c(c(-c3ccn[nH]3)c1)N(C1CCCCC1)CC2 [VII-3, N-(4-(chlorodifluoromethoxy)phenyl)-1-cyclohexyl-7-(1H-pyrazol-5-yl) indoline-5-carboxamide]
26 | 91 | CC(C)N1CCc2cc(C(=O)Nc3ccc(OC(F)(F)Cl)cc3)cc(-c3ccn[nH]3)c21 [VII-1, N-(4-(chlorodifluoromethoxy)phenyl)-1-isopropyl-7-(1H-pyrazol-5-yl)indoline-5-carboxamide]
57 | 344 | CC(C)n1cc(CO)c2cc(C(=O)Nc3ccc(OC(F)(F)Cl)cc3)cc(-c3ccn[nH]3)c21 [XII-8, N-(4-(chlorodifluoromethoxy)phenyl)-3-(hydroxymethyl)-1-isopropyl-7-(1H-pyrazol-5-yl)-1H-indole-5-carboxamide]
308 | 2160 | CC(C)N1c2c(cc(C(=O)Nc3ccc(OC(F)(F)Cl)cc3)cc2-c2ccn[nH]2)CC1C(=O)NCCN(C)C (stereo not drawn) [VII-32, N5-(4-(chlorodifluoromethoxy)phenyl)-N2-(2-(dimethylamino)ethyl)-1-isopropyl-7-(1H-pyrazol-5-yl)indoline-2,5-dicarboxamide]
584 | 3230 | CNCC1Cc2cc(C(=O)Nc3ccc(OC(F)(F)Cl)cc3)cc(-c3ccn[nH]3)c2N1C(C)C (stereo not drawn) [VII-17, N-(4-(chlorodifluoromethoxy)phenyl)-1-isopropyl-2-((methylamino)methyl)-7-(1H-pyrazol-5-yl) indoline-5-carboxamide]
112 | 250 | O=C(Nc1ccc(OC(F)(F)Cl)cc1)c1cc2c(c(-c3ccn[nH]3)c1)N(CCO)CC2 [VII-6, N-(4-(chlorodifluoromethoxy)phenyl)-1-(2-hydroxyethyl)-7-(1H-pyrazol-5-yl) indoline-5-carboxamide]
19 | 131 | CC(C)N1c2c(cc(C(=O)Nc3ccc(OC(F)(F)Cl)cc3)cc2-c2cncnc2)CC1C(=O)N(C)C (stereo not drawn) [VII-15, N5-(4-(chlorodifluoromethoxy)phenyl)-1-isopropyl-N2,N2-dimethyl-7-(pyrimidin-5-yl)indoline-2,5-dicarboxamide]
458 | 3680 | CN1C(=O)C(C)(C)c2cc(C(=O)Nc3ccc(OC(F)(F)Cl)cc3)cc(-c3ccn[nH]3)c21 [VIII-1, N-(4-(chlorodifluoromethoxy)phenyl)-1,3,3-trimethyl-2-oxo-7-(1H-pyrazol-5-yl)indoline-5-carboxamide]
49 | 163 | CC(C)N1c2c(cc(C(=O)Nc3ccc(OC(F)(F)Cl)cc3)cc2-c2ccn[nH]2)CC1C(=O)N1CCN(C)CC1 (stereo not drawn) [VII-33, N-(4-(chlorodifluoromethoxy)phenyl)-1-isopropyl-2-(4-methylpiperazine-1-carbonyl)-7-(1H-pyrazol-5-yl)indoline-5-carboxamide]
1160 | 3840 | CC(C)C(=O)N1CCc2cc(C(=O)Nc3ccc(OC(F)(F)Cl)cc3)cc(-c3ccn[nH]3)c21 [VII-10, N-(4-(chlorodifluoromethoxy)phenyl)-1-isobutyryl-7-(1H-pyrazol-5-yl) indoline-5-carboxamide]
56 | 660 | CC(C)N1c2c(cc(C(=O)Nc3ccc(OC(F)(F)Cl)cc3)cc2-c2cncnc2)CC1C(=O)N1CC(O)C1 (stereo not drawn) [VII-14, N-(4-(chlorodifluoromethoxy)phenyl)-2-(3-hydroxyazetidine-1-carbonyl)-1-isopropyl-7-(pyrimidin-5-yl)indoline-5-carboxamide]
22 | 511 | Cc1cn(C(C)C)c2c(-c3ccn[nH]3)cc(C(=O)Nc3ccc(OC(F)(F)Cl)cc3)cc12 [XII-6, N-(4-(chlorodifluoromethoxy)phenyl)-1-isopropyl-3-methyl-7-(1H-pyrazol-5-yl)-1H-indole-5-carboxamide]

The next lines start with the compound.

Compound | GI50 [1] [nM] | GI50 [2] [nM]
CC1(C)c2c(cc(C(=O)Nc3ccc(OC(F)(F)Cl)cc3)cc2-c2ccn[nH]2)C(=O)N1CCN1CCS(=O)(=O)CC1 [IV-7, N-(4-(chlorodifluoromethoxy)phenyl)-2-(2-(1,1-dioxidothiomorpholino)ethyl)-1,1-dimethyl-3-oxo-7-(1H-pyrazol-5-yl)isoindoline-5-carboxamide] | 364 | 1750
CC1(C)CN(S(C)(=O)=O)c2cc(C(=O)Nc3ccc(OC(F)(F)Cl)cc3)cc(-c3ccn[nH]3)c21 [III-5, N-(4-(chlorodifluoromethoxy)phenyl)-3,3-dimethyl-1-(methylsulfonyl)-4-(1H-pyrazol-5-yl)indoline-6-carboxamide] | 61 | 418
O=C(Nc1ccc(OC(F)(F)Cl)cc1)c1cc2c(c(-c3ccn[nH]3)c1)C1(CC(O)C(O)C1)C(=O)N2 (stereo not drawn) [V-9, N-(4-(chlorodifluoromethoxy)phenyl)-3,4-dihydroxy-2′-oxo-4′-(1H-pyrazol-5-yl)spiro[cyclopentane-1,3′-indoline]-6′-carboxamide] | 108 | 910
CC1(C)CNc2cc(C(=O)Nc3ccc(OC(F)(F)Cl)cc3)cc(-c3ccn[nH]3)c21 [III-3, N-(4-(chlorodifluoromethoxy)phenyl)-3,3-dimethyl-4-(1H-pyrazol-5-yl)indoline-6-carboxamide] | 94 | 790
CC1(C)c2c(cc(C(=O)Nc3ccc(OC(F)(F)Cl)cc3)cc2-c2ccn[nH]2)C(=O)N1CCO [IV-5, N-(4-(chlorodifluoromethoxy)phenyl)-2-(2-hydroxyethyl)-1,1-dimethyl-3-oxo-7-(1H-pyrazol-5-yl)isoindoline-5-carboxamide] | 121 | 1060
O=C(Nc1ccc(OC(F)(F)Cl)cc1)c1cc2c(c(-c3ccn[nH]3)c1)C1(CCCC1)C(=O)N2 [V-3, N-(4-(chlorodifluoromethoxy)phenyl)-2′-oxo-4′-(1H-pyrazol-5-yl)spiro[cyclopentane-1,3′-indoline]-6′-carboxamide] | 22 | 136
CN1CCC2(CC1)C(=O)Nc1cc(C(=O)Nc3ccc(OC(F)(F)Cl)cc3)cc(-c3ccn[nH]3)c12 [V-10, N-(4-(chlorodifluoromethoxy)phenyl)-1′-methyl-2-oxo-4-(1H-pyrazol-5-yl)spiro[indoline-3,4′-piperidine]-6-carboxamide] | 110 | 921
CN1CC(C)(C)c2c(-c3ccn[nH]3)cc(C(=O)Nc3ccc(OC(F)(F)Cl)cc3)cc21 [III-2, N-(4-(chlorodifluoromethoxy)phenyl)-1,3,3-trimethyl-4-(1H-pyrazol-5-yl)indoline-6-carboxamide] | 78 | 2060
O=C(Nc1ccc(OC(F)(F)Cl)cc1)c1cc2c(c(-c3cc[nH]n3)c1)C1(CCC(O)C1)C(=O)N2 (stereo not drawn) [V-5, N-(4-(chlorodifluoromethoxy)phenyl)-3-hydroxy-2′-oxo-4′-(1H-pyrazol-5-yl)spiro[cyclopentane-1,3′-indoline]-6′-carboxamide] | 144 | 335
CN1C(=O)c2cc(C(=O)Nc3ccc(OC(F)(F)Cl)cc3)cc(-c3cccnc3)c2C1(C)C [IV-9, N-(4-(chlorodifluoromethoxy)phenyl)-1,1,2-trimethyl-3-oxo-7-(pyridin-3-yl)isoindoline-5-carboxamide] | 77 | 107
O=C(Nc1ccc(OC(F)(F)Cl)cc1)c1cc2c(c(-c3ccn[nH]3)c1)C1(CCCCC1)C(=O)N2 [V-11, N-(4-(chlorodifluoromethoxy)phenyl)-2′-oxo-4′-(1H-pyrazol-5-yl)spiro[cyclohexane-1,3′-indoline]-6′-carboxamide] | 8 | 40
CC(C)N1CC(C)(C)Oc2cc(C(=O)Nc3ccc(OC(F)(F)Cl)cc3)cc(-c3ccn[nH]3)c21 [IX-5, N-(4-(chlorodifluoromethoxy)phenyl)-4-isopropyl-2,2-dimethyl-5-(1H-pyrazol-5-yl)-3,4-dihydro-2H-benzo[b][1,4]oxazine-7-carboxamide] | 17 | 333
Cc1ccc(-c2cc(C(=O)Nc3ccc(OC(F)(F)Cl)cc3)cc3c2C(C)(C)N(C)C3=O)s1 [IV-3, N-(4-(chlorodifluoromethoxy)phenyl)-1,1,2-trimethyl-7-(5-methylthiophen-2-yl)-3-oxoisoindoline-5-carboxamide] | 132 | 2380
